Columns and labels:
[1] = tested on: BBB in the SN Brain-Chip; assay: Permeability assays (apparent permeability, Papp) on the SN Brain-Chip; assay type: cell-based, human; details: αSyn fibril damaged SN Brain-Chips, trehalose added via brain channel on day 5, read after 72 hours (D8)
Experimental: Thus, BBB permeability assays were measured on the SN Brain-Chip after exposure to αSyn fibrils, as compared to exposure to αSyn monomers or PBS.
Permeability Assays, e.g., evaluate the establishment and integrity of the barrier. Apparent permeability (Papp) of the barrier was calculated by following a previously described method^81. […] After 24 hrs, effluent from both channels was sampled to determine the dye's concentration (amount) that had diffused through the membrane. […] Then, the following equation was used to calculate apparent paracellular permeability (Papp) based on a standard curve and using the following formula:

[2] = tested on: brain channel cells of the SN Brain-Chip (dopaminergic neurons); assay: Immunostaining of phospho-αSyn129 / αSyn accumulation in the brain channel; assay type: cell-based, human; details: 10 mM dose, compared to cells exposed to αSyn fibrils alone
Experimental: Thus, the capability of exogenously added fibrils was accessed for accumulation and processing cells of a SN Brain-Chip. Recombinant αSyn fibrils (4 μg/mL) was added in the culture medium of the brain channel under continuous flow, on Day 2 of the culture (FIG. 57A).
After three- and six-days upon-exposure to αSyn fibrils (D5 and D8 of the experiment, respectively), the exposed chips underwent immunostaining in order to determine the abundance of phosphoSer129-alph α-synuclein (phospho-αSyn129), a post-translational modification characteristic of pathogenic αSyn species^47,48.
Addition of exogenous alpha-synuclein to brain channel. Human recombinant αSyn monomers and pre-formed fibrils were purchased from Abcam (Monomers; ab218819, Fibrils; ab218819), and were diluted in DopaNeurons Media to a final concentration of 4 μg/mL. […]
For treatment, freshly prepared monomers and fibrils were used. […] Effluents, lysates, and staining were collected/fixed at day three- and day six post-exposure (D5 and D8 respectively), and were analyzed by a microplate reader, ELISA kits, and immunofluorescence microscopy.
Morphological analysis. […] Images were acquired with either an Olympus fluorescence microscope (IX83) or an inverted laser-scanning confocal microscope, e.g. Zeiss confocal microscope (AxiovertZ1 LSM880).

[3] = tested on: endothelial cells of the SN Brain-Chip; assay: Morphological analysis of tight junctions in endothelial cells in the αSyn fibril model; assay type: cell-based, human
Experimental: The junction protein expression of Claudin-5 was visualized by immunofluorescence staining with a Claudin-5 antibody and DAPI for cell nuclei. Scale bars: 50 μm.
Morphological analysis. Immunocytochemistry, including immunofluorescence microscopy, was conducted as previously described (Pediaditakis et al., 2020). Brief examples of methods are described herein. Brain-Chips were fixed with 4% paraformaldehyde in PBS for 10 min and then washed with PBS. Cells were blocked on the Brain-Chip in phosphate-buffered saline (PBS) containing 10% donkey serum (Sigma) at 4° C. overnight. Immunostaining was performed after permeabilization in PBS with 0.1% Saponin and blocking for 30 min in 10% donkey serum in PBS with 0.1% Saponin. Immunostaining was performed with specific primary antibodies (anti-TH, anti-GFAP, anti-NG2, anti-TMEM119, anti-pSer129-αSyn, anti-Cleaved Caspase-3, anti-CD68; Abcam), (anti-MAP2, and anti-CD31; Thermo Fisher Scientific), (anti-Claudin-1, anti-Claudin-5, anti-Occludin, anti-ZO-1; Invitrogen), in a 1:100 dilution in 10% donkey serum in PBS with 0.1% Saponin and incubated overnight on the Brain-Chip at 4° C. […] Images were acquired with either an Olympus fluorescence microscope (IX83) or an inverted laser-scanning confocal microscope, e.g. Zeiss confocal microscope (AxiovertZ1 LSM880).

[4] = tested on: HMC3 cells; details: 10 ng/ml, 24 h; cited from earlier work
[5] = tested on: iPS-derived brain endothelial cells; assay: Immunofluorescence of ZO-1 and ICAM-1 in the vascular channel of the TNF-α treated Brain-Chip; assay type: cell-based, human
Experimental: BBB permeability assays were done on the Brain-Chip upon exposure to TNF-α compared to the untreated group.
Morphological analysis. Immunocytochemistry, including immunofluorescence microscopy, was conducted as previously described (Pediaditakis et al., 2020). Brief examples of methods are described herein. Brain-Chips were fixed with 4% paraformaldehyde in PBS for 10 min and then washed with PBS. Cells were blocked on the Brain-Chip in phosphate-buffered saline (PBS) containing 10% donkey serum (Sigma) at 4° C. overnight. Immunostaining was performed after permeabilization in PBS with 0.1% Saponin and blocking for 30 min in 10% donkey serum in PBS with 0.1% Saponin. Immunostaining was performed with specific primary antibodies (anti-TH, anti-GFAP, anti-NG2, anti-TMEM119, anti-pSer129-αSyn, anti-Cleaved Caspase-3, anti-CD68; Abcam), (anti-MAP2, and anti-CD31; Thermo Fisher Scientific), (anti-Claudin-1, anti-Claudin-5, anti-Occludin, anti-ZO-1; Invitrogen), in a 1:100 dilution in 10% donkey serum in PBS with 0.1% Saponin and incubated overnight on the Brain-Chip at 4° C. Additional primary antibodies were MAP2 (Thermo Fisher Scientific; MA512826), VGLUT1 (Thermo Fisher Scientific; 48-2400), GFAP (Abcam; ab53554), NG2 (Abcam; ab83178), CD68 (Abcam; ab213363), ICAM-1 (R&D Systems; BBA3), ZO-1 (Thermo Fisher Scientific; 402200), GLUT1 (Thermo Fisher Scientific; SPM498). Fluorescently conjugated secondary antibodies with Alexa Fluor-488, Alexa Fluor-568, or Alexa Fluor-647 (Abcam) were then used when the primary antibodies are not conjugated, incubated in the dark for 2 hr at room temperature. Cells were then counterstained with DAPI nuclear stain. Images were acquired with either an Olympus fluorescence microscope (IX83) or an inverted laser-scanning confocal microscope, e.g. Zeiss confocal microscope (AxiovertZ1 LSM880).

[6] = tested on: Brain-Chip brain channel cells; assay: Secreted cytokines (MSD V-PLEX) and glutamate in brain channel media of the TNF-α treated Brain-Chip; assay type: cell-based, human
Experimental: To determine whether the level of other inflammatory cytokines increases in this TNF-α model, levels of IFNγ, interleukin-1β (IL-1β) and IL-6, were measured following two days of exposure within the brain channel media. These cytokines are associated with the increase of BBB permeability.
In one embodiment, chips were seeded with human iPS-derived glutamatergic and GABAergic neurons (NeuCyte) at a density of 2×10^6 cells/mL and 0.75×10^6 cells/mL respectively, co-cultured with human primary microglia (ATCC; CRL3304) at a density of 1×10^5 cells/mL, human primary astrocytes (NeuCyte), and primary pericytes (Sciencell; 1200) at a density of 1×10^5 cells/mL, using “seeding medium” (NeuCyte), and incubated overnight. The next day, human iPS-derived Brain Microvascular Endothelial cells were seeded in the vascular channel at a density of 14-16×10^6 cells/mL using human serum-free endothelial cell medium supplemented with 5% human serum from platelet-poor human plasma (Sigma) and allowed to attach to the membrane overnight. Chips were then connected to the culture module. At this time, the medium supplying the brain channel was switched to maintenance medium (Neucyte), and the serum of the vascular medium was lowered to 2%. Chips were maintained under constant perfusion at 60 μL/hr through all chips' brain and vascular channels until day 7. Two additional commercial endothelial cell sources were used in experiments. Human primary endothelial cells (Cell Systems) and hCMEC/D3 (Millipore) were cultured in media according to the manufacturer's instructions.
(§1) TNF-α treatment. To mimic the inflammatory condition, cells were treated on either brain or vascular channel with TNF-α (Tumor Necrosis Factor-α, R&D Systems; 210-TA). The treatment was initiated after the formation of a confluent monolayer at ˜5 days in culture. Cells were further incubated in a culturing medium, including TNF-α (100 ng/ml) up to 48 hours.
ELISA analysis. The levels of IFNγ, IL-1β, and IL-6 were measured by M.S.D. 96-well plate Human Pro-Inflammatory V-PLEX Human Pro-Inflammatory Assay kits. The secreted levels of Glutamate were measured by Glutamate Assay Kit (Fluorometric) (Abcam; ab138883).

[7] = tested on: neurons, astrocytes and microglia in the brain channel of the Brain-Chip; assay type: cell-based, human
Experimental: Neuroinflammation incorporates a broad spectrum of complex cellular responses that often contribute to the pathogenesis and progression of various neurological disorders. To study the effects of neuroinflammatory specific signals on the Brain-Chip, TNF-α was perfused within the brain channel at a pathophysiological concentration of 100 ng/mL (FIG. 36A and FIG. 35). […] In addition, excessive TNF-α levels have been reported to have an inhibitory effect on glutamate transporters, resulting in increased glutamate concentration in the CNS parenchyma, linking the central inflammatory response to glutamate-mediated toxicity. To test this hypothesis in this system, secreted glutamate levels were measured by enzyme-linked immunosorbent assay (ELISA).
In one embodiment, a model of neuroinflammation was provided by treating cells as a neurovascular unit (brain side) with TNF-alpha added to the brain channel. TNFα, was previously reported to mediate neuroinflammation and detected in patients with neurological. disorders. On days 0 and 1, cells were seeded on the top and bottom channel of one embodiment of a Brain-Chip, respectively. The Brain-Chip is then allowed to mature under flow conditions for 4 more days and on day 5, cells on the brain side are treated with TNFα, for 48 hrs. During exposure, effluent is collected, and on the last day of the experiment, cells in chips may be imaged, stained for immunohistochemistry and imaged. In some embodiments, cells are lysed for transcriptomic analysis. Thus, modeling neuroinflammation comprises Brain chips and methods of use where TNF-a and/or other inflammatory compounds are added to the Brain channel. In some embodiments, such neuroinflamed brain chips are used in methods for developing treatments in addition for testing compounds for efficacy and safety.
as §1
Morphological analysis. Immunocytochemistry, including immunofluorescence microscopy, was conducted as previously described (Pediaditakis et al., 2020). Brief examples of methods are described herein. Brain-Chips were fixed with 4% paraformaldehyde in PBS for 10 min and then washed with PBS. Cells were blocked on the Brain-Chip in phosphate-buffered saline (PBS) containing 10% donkey serum (Sigma) at 4° C. overnight. […] Images were acquired with either an Olympus fluorescence microscope (IX83) or an inverted laser-scanning confocal microscope, e.g. Zeiss confocal microscope (AxiovertZ1 LSM880).

[8] = tested on: Blood-Brain Barrier of the Brain-Chip; assay: BBB permeability to 3 kDa dextran in the TNF-α treated Brain-Chip; assay type: cell-based, human
Experimental: To directly measure how BBB permeability changed over time in response to TNFα, the transport of 3-kDa Cascade Blue dextran was evaluated across the BBB. Fluorescent dextran molecule was introduced in the vascular channel. After 24 hrs and 48 hrs of exposure, the amount of fluorescent dextran collected in the Brain-side was measured.
as §1
Permeability Assays, e.g., evaluate the establishment and integrity of the barrier. Apparent permeability (Papp) of the barrier was calculated by following a previously described method^81. Briefly, 100 μg mL^−1 (0.1 mg/mL) of dextran (3 kDa, e.g. Cascade Blue) and/or 20 μg mL^−1 of Lucifer (0.5 kDa) tracers were dosed (flowed) through the vascular channels for 24 hrs. After 24 hrs, effluent from both channels was sampled to determine the dye's concentration (amount) that had diffused through the membrane. Concentration of the dextran and Lucifer tracers in the outlet samples from both vascular and brain channels was determined by using BioTek (BioTek Instruments, Inc., Winooski, Vt., USA). […]
Here, SA is the surface area of sections of the channels that overlap (0.17 cm^2), QR and QD are the fluid flow rates in the dosing and receiving channels respectively, in units of cm^3/s, CR,0 and CD,0 are the recovered concentrations in the dosing and receiving channels respectively, in any consistent units. IgG permeability was also evaluated after dosing the vascular channel and measuring the IgG content on the brain channel. Detection and quantitation of serum immunoglobulin G (IgG1; Abcam) was performed using the ELISA kit (Abcam), after 24 hrs of perfusion.

[9] = TNF-α 100 ng/mL within the vascular channel, vs control
[10] = TNF-α 100 ng/mL in brain channel (neuroinflammation), two days, vs untreated
[11] = TNF-α perfused within the vascular channel (systemic inflammation), two days, vs untreated
[12] = TNF-α 100 ng/mL perfused within the brain channel, two days, vs untreated

## OC[C@H]1O[C@H](O[C@H]2O[C@H](CO)[C@@H](O)[C@H](O)[C@H]2O)[C@H](O)[C@@H](O)[C@@H]1O [trehalose, O-α,-d-glucopyranosyl-[1→1]-α-d-glucopyranoside]
[1]
  BBB permeability (3 kDa dextran): significantly decreased BBB permeability
[2]
  accumulation of αSyn within the cells of the brain channel: diminished the accumulation of αSyn
[3]; αSyn fibril damaged SN Brain-Chips, trehalose treated, D8
  tight junctions (ZO-1, Claudin-5): rescuing damaged tight junctions
[3]; αSyn fibril model with or without trehalose treatment
  junction protein expression of ZO-1: restoration of junction protein expression of ZO-1

## IFN-gamma: cytokine used to activate HMC3 microglia cells
[4]
  markers of activated microglia MHCII, CD68 and CD11b: upregulated

## TNF-α
[5]; [9]
  expression of BBB tight junction protein ZO-1: significantly attenuated
  expression of ICAM-1: increased
[5]; TNF-α in brain channel, 48 hrs
  ZO-1 expression: loss of ZO-1
  intercellular adhesion molecule 1 (ICAM-1) expression: excessive increase
[6]; TNF-alpha, 24 and 48 hours
  IL-6 production, Brain chips with and without microglial cells: induced significant IL-6 production in both embodiments
[6]; TNF-alpha, after both 24 and 48 hours
  IL-6 secreted, Brain chips including microglial cells over those without: unexpected significant increase
[6]; TNF-α 100 ng/mL brain channel, two days, vs untreated
  secreted glutamate levels (ELISA), media of the brain channel: significantly higher
[6]; [10]
  level of IFNγ in brain channel media: significantly higher
  level of IL-1β in brain channel media: significantly higher
  level of IL-6 in brain channel media: significantly higher
[6]; TNF-α exposure, Brain-Chip without microglia
  level of IL-6 in brain channel media, absence of microglia: not stigmatically changed
[6]; [11]
  level of IFNγ in brain channel media: significantly higher levels
  level of IL-1β in brain channel media: significantly higher levels
  level of IL-6 in brain channel media: significantly higher levels
[7]; TNF-alpha 100 ng/ml
  microglia activation (phenotypic changes, phagocytosis of latex beads): activates microglia as shown by phenotypic changes and induction of phagocytosis
[7]; [12]
  proportion of the GFAP-positive cells: significantly increased
  proportion of the MAP2-positive cells: decreased
[7]; TNF-α 100 ng/mL, brain channel, two days of exposure
  activated microglia (CD68 expression): activated microglia were also observed
[8]; TNF-α 100 ng/mL in brain channel, 24 and 48 hrs, time dependent
  permeability to 3 kDa dextran: significantly increased permeability
[8]; TNF-α 100 ng/mL perfused within the vascular channel (systemic inflammation)
  permeability to 3 kDa dextran: significantly increased permeability
[8]; TNFα 100 ng/mL on the brain side, 24 hrs and 48 hrs
  transport through the BBB (apparent permeability) vs vehicle control: significantly increased by three times over the control
